Source: article PMC9182007, “Statistical Methods in the Study of Protein Binding and Its Relationship to Drug Bioavailability in Breast Milk” (Molecules, 2022)
Read-outs that look alike come from different tables or passages of the source.

What was measured:
[1] = biological target: T1, bovine serum albumin (BSA) (Bos taurus, UniProt P02769); test: RP TLC on plates impregnated with bovine serum albumin; type: binding; conditions: Table S4, RP plate impregnated with 2 mg/mL BSA; pH 7.4 mobile phase
T1 construct: purchased Sigma Aldrich
T1 sequence (P02769 25-607): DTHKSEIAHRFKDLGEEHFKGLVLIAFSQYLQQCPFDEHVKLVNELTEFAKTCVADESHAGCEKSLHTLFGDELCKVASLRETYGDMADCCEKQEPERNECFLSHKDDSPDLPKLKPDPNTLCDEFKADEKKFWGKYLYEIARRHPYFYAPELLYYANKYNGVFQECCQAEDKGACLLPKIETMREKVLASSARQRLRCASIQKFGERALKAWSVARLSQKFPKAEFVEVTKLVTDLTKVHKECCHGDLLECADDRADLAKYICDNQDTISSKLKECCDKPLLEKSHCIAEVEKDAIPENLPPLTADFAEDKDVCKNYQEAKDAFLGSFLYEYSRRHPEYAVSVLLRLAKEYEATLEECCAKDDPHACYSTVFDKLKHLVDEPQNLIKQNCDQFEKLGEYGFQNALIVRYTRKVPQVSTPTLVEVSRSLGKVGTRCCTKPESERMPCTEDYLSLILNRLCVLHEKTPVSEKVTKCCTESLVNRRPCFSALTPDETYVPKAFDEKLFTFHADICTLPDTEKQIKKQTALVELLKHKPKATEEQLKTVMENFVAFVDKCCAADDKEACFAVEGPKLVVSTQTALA

[2] = biological target: T1, bovine serum albumin (BSA); test: NP TLC on plates impregnated with bovine serum albumin; type: binding; conditions: Table S3, NP plate impregnated with 2 mg/mL BSA; pH 7.4 mobile phase
[3] = biological target: T2, human serum albumin (HSA) (Homo sapiens, UniProt P02768); test: in vitro; conditions: immobilized hsa column, pH 7.4
T2 sequence (P02768 25-609): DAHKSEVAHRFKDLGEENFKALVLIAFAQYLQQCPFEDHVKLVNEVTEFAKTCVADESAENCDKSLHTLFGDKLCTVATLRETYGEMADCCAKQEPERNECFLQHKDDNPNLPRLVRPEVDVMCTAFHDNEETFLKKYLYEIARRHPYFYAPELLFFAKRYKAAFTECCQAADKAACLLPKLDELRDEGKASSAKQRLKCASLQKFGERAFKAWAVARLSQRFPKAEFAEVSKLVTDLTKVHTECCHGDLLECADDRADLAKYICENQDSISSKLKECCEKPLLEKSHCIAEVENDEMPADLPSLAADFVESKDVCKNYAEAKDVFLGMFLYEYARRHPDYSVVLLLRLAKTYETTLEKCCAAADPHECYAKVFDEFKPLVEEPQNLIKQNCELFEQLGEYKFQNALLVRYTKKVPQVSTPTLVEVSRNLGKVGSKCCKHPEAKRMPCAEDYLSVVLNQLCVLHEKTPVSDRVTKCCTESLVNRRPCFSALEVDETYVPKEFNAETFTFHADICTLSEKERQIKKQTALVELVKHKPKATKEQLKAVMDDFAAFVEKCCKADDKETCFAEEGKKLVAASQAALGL
Protocol: (§1) High performance liquid chromatography was performed using immobilized human serum albumin column (HPLCHSA) and immobilized artificial membrane (HPLCIAM). HPLC was the source of the log k values (logarithm of retention factor), log kHSA and log kIAM.
(§2) High performance liquid chromatography was performed using a chromatography column with immobilized human serum albumin. The assay was performed on a Perkin Elmer Series 200 instrument connected to a UV-VIS spectrometer as detector. The analytical wavelength was the same for all compounds at 210 nm. […] The acetate buffer was prepared by dissolving 0.77 g of ammonium acetate in 1 L of distilled water. The pH was then adjusted with a concentrated ammonia solution using a pH meter.
(§3) The phase flow through the system was set to 0.9 mL/min as recommended by the column manufacturer. The solutions were delivered to the column using an autosampler syringe, the injection size was 10 µL. Since the column could not be thermostated, the room was kept at a constant temperature of 25 degrees Celsius.
(§4) Chromatographic data (retention coefficient, k, and derivative, log k) were obtained with TotalChrom software connected to an HPLC instrument. […] The experiment was then repeated and the collected retention rates were the mean values of both series.

[4] = biological target: T2, human serum albumin (HSA)
Protocol: as §1, §2, §3, §4

[5] = HPLC on immobilized artificial membrane column (HPLCIAM); type: physicochemical; conditions: for log k IAM: Table S5, IAM column, pH 7.4; for k IAM: Table S5, retention factor, IAM column, phosphate buffer pH 7.4/acetonitrile 80:20
[6] = NP TLC on non-impregnated control plates; type: physicochemical; conditions: Table S3, non-impregnated NP plate; acetonitrile/acetate buffer pH 7.4/methanol 60:20:20
[7] = Table S1, coded 1/0; ref DrugBank [7]; cited from earlier work
[8] = RP TLC on non-impregnated control plates; type: physicochemical; conditions: Table S4, non-impregnated RP plate; acetonitrile/acetate buffer pH 7.4/methanol 60:20:20
plasma protein = conditions: Table S1, plasma protein binding given as fraction; ref DrugBank [7]; cited from earlier work
[9] = Table S5, retention factor, HSA column, pH 7.4, 25 degrees Celsius

| SMILES | RP (Rf, BSA-impregnated RP plate) [1] | NP (Rf, BSA-impregnated NP plate) [2] | chromatographic logD [3] | k HSA [4, 9] | log k IAM [5] | k IAM [5] | CNP (Rf, control NP plate) [6] | CNS+/- [7] | CRP (Rf, control RP plate) [8] | PB (plasma protein) | k HSA ([4]; pH 7.4) |
| --- | --- | --- | --- | --- | --- | --- | --- | --- | --- | --- | --- |
| CC[C@H]1OC(=O)[C@H](C)[C@@H](O[C@H]2C[C@@](C)(OC)[C@@H](O)[C@H](C)O2)[C@H](C)[C@@H](O[C@@H]2O[C@H](C)C[C@H](N(C)C)[C@H]2O)[C@](C)(O)C[C@@H](C)CN(C)[C@H](C)[C@@H](O)[C@]1(C)O [azithromycin] | 0.24 | 0.63 | -0.64 | 0.23 | -1.20 | 0.06 | 0.63 | 0 | 0.24 | 0.29 | – |
| CCOCCn1c(C2CCN(CCc3ccc(C(C)(C)C(=O)O)cc3)CC2)nc2ccccc21 [bilastine] | 0.72 | 0.44 | -0.17 | 0.67 | -0.26 | 0.55 | 0.46 | – | 0.76 | 0.87 | – |
| O=C1CN=C(c2ccccn2)c2cc(Br)ccc2N1 [bromazepam] | 0.81 | 0.90 | -0.2 | – | 0.34 | 2.21 | 0.87 | 1 | 0.83 | 0.7 | 0.63 |
| COc1ccccc1OCCNCC(O)COc1cccc2[nH]c3ccccc3c12 (stereo not shown) [carvedilol] | – | 0.9 | 1.16 | 14.5 | – | – | 0.73 | 0 | – | 0.98 | – |
| CO/N=C(\C(=O)N[C@@H]1C(=O)N2C(C(=O)O)=C(COC(N)=O)CS[C@H]12)c1ccco1 [cefuroxime] | 0.87 | 0.98 | -0.64 | 0.23 | 0.23 | 1.69 | 0.97 | 0 | 0.88 | 0.5 | – |
| CCN(CC)C(=O)Nc1ccc(OCC(O)CNC(C)(C)C)c(C(C)=O)c1 (stereo not shown) [celiprolol] | 0.79 | 0.46 | 0.05 | 1.12 | 0.77 | 5.87 | 0.45 | – | 0.75 | 0.275 | – |
| CN1CCC(=C2c3ccccc3C=Cc3ccccc32)CC1 [cyproheptadine] | 0.47 | 0.43 | 0.99 | 9.7 | 1.38 | 23.79 | 0.45 | 1 | 0.45 | 0.975 | – |
| CN1C[C@H](C(=O)N[C@]2(C)O[C@@]3(O)[C@@H]4CCCN4C(=O)[C@H](Cc4ccccc4)N3C2=O)C[C@@H]2c3cccc4[nH]cc(c34)C[C@H]21 [dihydroergotamine] | 0.78 | 0.75 | -0.64 | – | – | – | 0.72 | 0 | 0.78 | 0.93 | 0.23 |
| COC(=O)[C@@H]1CC2=CC(=O)CC[C@]2(C)[C@@]23O[C@@H]2C[C@@]2(C)[C@@H](CC[C@@]24CCC(=O)O4)[C@H]13 [eplerenone] | 0.85 | 0.94 | -0.68 | 0.21 | 0.19 | 1.54 | 0.94 | 1 | 0.84 | 0.5 | – |
| Cc1ccc(S(=O)(=O)NC(=O)NN2CC3CCCC3C2)cc1 (stereo not shown) [gliclazide] | 0.80 | 0.95 | 0.99 | 9.69 | -0.55 | 0.28 | 0.95 | 1 | 0.83 | 0.94 | – |
| CN1CCC(=C2c3ccccc3CC(=O)c3sccc32)CC1 [ketotifen] | 0.74 | 0.36 | 0.77 | 5.83 | 1.34 | 22.04 | 0.34 | 1 | 0.75 | 0.75 | – |
| CN(C)C(=O)C(CCN1CCC(O)(c2ccc(Cl)cc2)CC1)(c1ccccc1)c1ccccc1 [loperamide] | 0.77 | 0.67 | 0.65 | – | – | – | 0.68 | – | 0.75 | – | 4.47 |
| CN1CCN=C(c2ccccc2)c2cc(Cl)ccc21 [medazepam] | 0.65 | 0.94 | 1.25 | – | 1.54 | 34.65 | 0.91 | – | 0.66 | – | 17.86 |
| OC(CNCC(O)C1CCc2cc(F)ccc2O1)C1CCc2cc(F)ccc2O1 (stereo not shown) [nebivolol] | 0.40 | 0.75 | 0.87 | 7.49 | – | – | 0.75 | 1 | 0.40 | 0.98 | – |
| CC(C)c1nc(N(C)S(C)(=O)=O)nc(-c2ccc(F)cc2)c1/C=C/[C@@H](O)C[C@@H](O)CC(=O)O [rosuvastatin] | 0.88 | 0.89 | 0.29 | 1.96 | -0.02 | 0.96 | 0.9 | 0 | 0.92 | – | – |
| Cc1cncc(CN2CCC(=C3c4ccc(Cl)cc4CCc4cccnc43)CC2)c1 [rupatadine] | 0.52 | 0.43 | 1.09 | 12.38 | 0.97 | 9.29 | 0.42 | – | 0.55 | 0.985 | – |
| CC(=O)S[C@@H]1CC2=CC(=O)CC[C@]2(C)[C@H]2CC[C@@]3(C)[C@@H](CC[C@@]34CCC(=O)O4)[C@H]12 [spironolactone] | 0.77 | 0.96 | -0.09 | 0.82 | 1.13 | 13.38 | 0.98 | – | 0.78 | 0.9 | – |
